In ChEMBL document CHEMBL1155451, “Complexes of bacterial nicotinate mononucleotide adenylyltransferase with inhibitors: implication for structure-based drug design and improvement” (J Med Chem, 2010) one finds IC50 and inhibition data, which are given here for three molecules.

Assay [1] has as its target T1, Probable nicotinate-nucleotide adenylyltransferase (Bacillus anthracis, UniProt C3L5T6).
T1 sequence (C3L5T6 whole entry): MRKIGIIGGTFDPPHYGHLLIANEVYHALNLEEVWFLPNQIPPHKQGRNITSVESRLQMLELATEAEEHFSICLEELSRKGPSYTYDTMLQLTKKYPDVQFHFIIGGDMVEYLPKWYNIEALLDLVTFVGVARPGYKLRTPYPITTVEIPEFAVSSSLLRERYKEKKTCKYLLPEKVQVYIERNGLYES

The target in assay [2] is T2, Probable nicotinate-nucleotide adenylyltransferase (Bacillus anthracis) (UniProt C3L5T6).
T2 sequence (whole entry): T1 sequence (C3L5T6 whole entry)
In words: Inhibition of Bacillus anthracis nicotinate-nucleotide adenosyltransferase up to 100 uM preincubated for 5 mins before addition of substrate by malachite green reagent method.

By IC50 is commonly meant the concentration that gives 50% inhibition.

Calls of active or inactive are those of the source. The calls are words filed in the database; no cut-off is given here.

Consider `O=C(O)CN(/N=C/c1cccc2ccccc12)C(=O)CCC(=O)Nc1ccccc1Cl`, for which the IC50 in assay [1] is above 200 µM.
Same read-out and setting: next, `CC(/C=N/NC(=O)CCC(=O)Nc1ccc(Br)cc1)c1ccc2ccccc2c1` (stereo not drawn): above 200 µM.
With `O=C(O)CN(/N=C/c1ccc(/C=N/N(CC(=O)O)C(=O)CCC(=O)Nc2ccccc2Cl)cc1)C(=O)CCC(=O)Nc1ccccc1Cl`, the inhibition entry in assay [2] was “inactive”.
